The results in this text go back to patent US11091482B2, “Isoxazolyl-carbonyloxy azabicyclo[3.2.1]octanyl compounds as FXR activators” (ARDELYX, INC., priority 2016, dated 2021).

Structures are written as SMILES.

Assay [1] deals with human Farnesoid X receptor ligand-binding domain/Gal4 DNA binding domain chimera (Homo sapiens (Human), UniProt Q96RI1). Put plainly: Cell-based FXR beta-lactamase reporter assay (FXR-UAS-bla HEK 293T cells). Particulars: for FXR pEC50 / EC50: cellular FXR beta-lactamase reporter assay, -log EC50; for Emax: HEK-293T, read-out: % Efficacy; for EC50: read-out: FXR pEC50 (converted). The method, then: FXR activation was measured using a cell line and procedure obtained from Life Technologies (Cat #K1691). FXR-UAS-bla HEK 293T cells contain a human Farnesoid X receptor ligand-binding domain/Gal4 DNA binding domain chimera stably integrated into the CellSensor® UAS-bla HEK 293T cell line. The CellSensor® UAS-bla HEK 293T contains a beta-lactamase reporter gene under control of a UAS response element stably integrated into HEK 293T cells. Activation of FXR by bound ligands results in transcriptional activation of the beta-lactamase reporter gene, which is detected via assay of beta-lactamase activity. Cells are harvested and diluted into assay medium containing phenol red-free DMEM supplemented with 2% Charcoal-stripped FBS, pyruvate, non-essential amino acids. Cells are then transferred to a 384 well assay plate. Test compounds are dissolved in DMSO and a 3-fold serial dilution series is generated, then further diluted into assay medium. […] A FRET-based […] is loaded into cells as its acetomethoxy ester. Intracellular esterases liberate free CCF4, a cephalosporin core linking 7-hydroxycoumarin to fluorescein. In the presence of beta-lactamase activity produced in the presence of FXR agonists, cleavage of CCF4 spatially separates the two dyes and disrupts FRET, so that exciting the coumarin at 409 nm now produces a blue fluorescence signal at 447 nm. The change in FRET signal is plotted against the test compound concentration and fit to a 3-parameter logistical equation.
(In general: Reporter assays use an easily measured gene product as a stand-in for the process of interest.)

Assay [2] concerns the target ligand binding domain of human FXR (Homo sapiens (Human), UniProt Q96RI1). In words: FXR ligand binding assay (LanthaScreen FRET).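 For all read-outs here: TR-FRET coactivator recruitment: ligand-induced binding of fluorescein-labelled SRC2-2 peptide to GST-tagged FXR LBD detected via Tb anti-GST antibody, serial compound dilutions, 3-parameter logistic fit.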 Particulars: for FXR pEC50: FXR ligand binding assay, -log EC50; for Emax: read-out: % Efficacy. (In TR-FRET formats the signal depends on donor and acceptor labels being close together.)
Protocol: The affinity of FXR ligands for the ligand binding domain of FXR was determined using a commercially available human FXR ligand binding assay (LanthaScreen, Thermofisher Cat #PV4833). […] Binding of FXR ligands to the FXR ligand binding domain promotes binding of the fluorescein-labelled SRC2-2 peptide. This causes a FRET signal between the terbium-labelled anti-GST antibody and the fluorescein-labelled SRC peptide which are both bound to the FXR ligand binding domain.
Test compounds are dissolved in DMSO and a 3-fold serial dilution series is generated, then further diluted into assay buffer. The compounds are mixed with 5 nM GST-tagged FXR ligand binding domain, 5 nM Tb-labelled anti-GST antibody and 500 nM fluorcscein-labelled SRC2-2 peptide in a pH 7.4 buffer. The reaction is incubated at room temperature for 1 hour, then the FRET signal is measured as the ratio of the 520 nm/495 nm emission following excitation at 340 nm. The change in FRET signal is plotted against the test article concentration and fit to a 3-parameter logistical equation.

ligand binding domain of human FXR, sequence (Q96RI1 262-486): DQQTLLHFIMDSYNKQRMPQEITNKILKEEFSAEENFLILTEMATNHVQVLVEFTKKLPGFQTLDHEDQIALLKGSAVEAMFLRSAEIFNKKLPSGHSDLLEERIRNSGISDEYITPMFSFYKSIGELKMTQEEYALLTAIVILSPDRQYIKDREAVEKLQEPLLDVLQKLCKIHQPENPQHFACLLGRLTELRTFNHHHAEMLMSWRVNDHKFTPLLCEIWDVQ
human Farnesoid X receptor ligand-binding domain/Gal4 DNA binding domain chimera, sequence (Q96RI1 262-486, stated change not applied): as the sequence (Q96RI1 262-486) above

For `CC(C)(C)c1onc(-c2c(Cl)cccc2Cl)c1C(=O)OC1C[C@H]2CC[C@@H](C1)N2c1nc2c(F)cc(C(=O)O)cc2s1` (single isomer, unassigned) [Compound I-25], the “FXR pEC50” value in assay [1] was 7.6; in assay [2], 7.2.
The matching figures for `CC1(c2onc(-c3c(Cl)cccc3Cl)c2C(=O)OC2C[C@H]3CC[C@@H](C2)N3c2nc3c(F)cc(C(=O)O)cc3s2)CC1` (single isomer, unassigned) [Compound I-26]: 7.5 and 7.4.
For the compound `NC(=O)c1cc(F)c2nc(N3[C@@H]4CC[C@H]3C[C@@H](OC(=O)c3c(-c5c(Cl)cccc5Cl)noc3C3CC3)C4)sc2c1` [Compound I-3, (1R,3R,5S)-8-(6-carbamoyl-4-fluoro-1,3-benzothiazol-2-yl)-8-azabicyclo[3.2.1]octan-3-yl 5-cyclopropyl-3-(2,6-dichlorophenyl)-1,2-oxazole-4-carboxylate], the Emax in assay [2] was 60%.
As for `O=C(O)CNC(=O)c1cc(F)c2nc(N3[C@@H]4CC[C@H]3C[C@@H](OC(=O)c3c(-c5c(Cl)cccc5Cl)noc3C3CC3)C4)sc2c1` [Compound I-4, 2-({2-[(1R,3R,5S)-3-[5-cyclopropyl-3-(2,6-dichlorophenyl)-1,2-oxazole-4-carbonyloxy]-8-azabicyclo[3.2.1]octan-8-yl]-4-fluoro-1,3-benzothiazol-6-yl}formamido)acetic Acid], in assay [1], the Emax worked out at 109% and the EC50 is 794 nM. For the same compound, the Emax in assay [2] was determined as 76%.
With `O=C(NCCS(=O)(=O)O)c1cc(F)c2nc(N3[C@@H]4CC[C@H]3C[C@@H](OC(=O)c3c(-c5c(Cl)cccc5Cl)noc3C3CC3)C4)sc2c1` [Compound I-5, 2-({2-[(1R,3R,5S)-3-[5-cyclopropyl-3-(2,6-dichlorophenyl)-1,2-oxazole-4-carbonyloxy]-8-azabicyclo[3.2.1]octan-8-yl]-4-fluoro-1,3-benzothiazol-6-yl}formamido)ethane-1-sulfonic Acid], in assay [1], the Emax was found to be 72% and the EC50 was 2510 nM. In assay [2], the Emax was 77%.
As to `CS(=O)(=O)NC(=O)c1cc(F)c2nc(N3[C@@H]4CC[C@H]3C[C@@H](OC(=O)c3c(-c5c(Cl)cccc5Cl)noc3C3CC3)C4)sc2c1` [Compound I-6, (1R,3R,5S)-8-[4-fluoro-6-(methanesulfonylcarbamoyl)-1,3-benzothiazol-2-yl]-8-azabicyclo[3.2.1]octan-3-yl 5-cyclopropyl-3-(2,6-dichlorophenyl)-1,2-oxazole-4-carboxylate], in assay [1], the Emax came to 109% and the EC50 was 15.8 nM. Also, the Emax in assay [2] was 110%.
On to `COc1cc2nc(N3[C@@H]4CC[C@H]3C[C@@H](OC(=O)c3c(-c5c(Cl)cccc5Cl)noc3C3CC3)C4)sc2cc1C(=O)O` [Compound I-7, 2-[(1R,3R,5S)-3-[5-cyclopropyl-3-(2,6-dichlorophenyl)-1,2-oxazole-4-carbonyloxy]-8-azabicyclo[3.2.1]octan-8-yl]-5-methoxy-1,3-benzothiazole-6-carboxylic Acid], for which, in assay [1], the Emax was 110% and the EC50 was 7.94 nM. For the same compound, in assay [2], the Emax amounted to 125%.
Take `COc1cc(C(=O)O)cc2sc(N3[C@@H]4CC[C@H]3C[C@@H](OC(=O)c3c(-c5c(Cl)cccc5Cl)noc3C3CC3)C4)nc12` [Compound I-8, 2-[(1R,3R,5S)-3-[5-Cyclopropyl-3-(2,6-dichlorophenyl)-1,2-oxazole-4-carbonyloxy]-8-azabicyclo[3.2.1]octan-8-yl]-4-methoxy-1,3-benzothiazole-6-carboxylic Acid]: in assay [1], the Emax amounted to 114% and the EC50 was 3.98 nM. Besides, the Emax in assay [2] came out at 105%.
Consider `O=C(O)c1cc(OC(F)(F)F)c2nc(N3[C@@H]4CC[C@H]3C[C@@H](OC(=O)c3c(-c5c(Cl)cccc5Cl)noc3C3CC3)C4)sc2c1` [Compound I-9, 2-[(1R,3R,5S)-3-[5-cyclopropyl-3-(2,6-dichlorophenyl)-1,2-oxazole-4-carbonyloxy]-8-azabicyclo[3.2.1]octan-8-yl]-4-(trifluoromethoxy)-1,3-benzothiazole-6-carboxylic Acid], for which, in assay [1], the Emax was determined as 119% and the EC50 is 3.16 nM. The Emax in assay [2] was 136%.
As for `O=C(O)c1cc(C(F)(F)F)c2nc(N3[C@@H]4CC[C@H]3C[C@@H](OC(=O)c3c(-c5c(Cl)cccc5Cl)noc3C3CC3)C4)sc2c1` [Compound I-10, 2-[(1R,3R,5S)-3-[5-cyclopropyl-3-(2,6-dichlorophenyl)-1,2-oxazole-4-carbonyloxy]-8-azabicyclo[3.2.1]octan-8-yl]-4-(trifluoromethyl)-1,3-benzothiazole-6-carboxylic Acid], in assay [1], the Emax was determined as 104% and the EC50 was 25.1 nM. In addition, in assay [2], the Emax turned out to be 102%.
Take `COc1cc(C(=O)O)cc2sc(N3[C@@H]4CC[C@H]3C[C@@H](OC(=O)c3c(C56CCC(CC5)CC6)noc3C3CC3)C4)nc12` [Compound I-21, 2-[(1R,3R,5S)-3-(3-{bicyclo[2.2.2]octan-1-yl}-5-cyclopropyl-1,2-oxazole-4-carbonyloxy)-8-azabicyclo[3.2.1]octan-8-yl]-4-methoxy-1,3-benzothiazole-6-carboxylic Acid]: in assay [1], the Emax stood at 44%.
Take `COc1cc2nc(N3[C@@H]4CC[C@H]3C[C@@H](OC(=O)c3c(C56CCC(CC5)CC6)noc3C3CC3)C4)sc2cc1C(=O)O` [Compound I-22, 2-[(1R,3R,5S)-3-(3-{bicyclo[2.2.2]octan-1-yl}-5-cyclopropyl-1,2-oxazole-4-carbonyloxy)-8-azabicyclo[3.2.1]octan-8-yl]-5-methoxy-1,3-benzothiazole-6-carboxylic Acid]: in assay [1], the Emax was determined as 44% and the EC50 was 398 nM.
As to `Cn1c(N2[C@@H]3CC[C@H]2C[C@@H](OC(=O)Cc2c(-c4c(Cl)cccc4Cl)noc2C2CC2)C3)nc2c(F)cc(C(=O)O)cc21` [Compound I-33, 2-[(1R,3R,5S)-3-({2-[5-cyclopropyl-3-(2,6-dichlorophenyl)-1,2-oxazol-4-yl]acetyl}oxy)-8-azabicyclo[3.2.1]octan-8-yl]-4-fluoro-1-methyl-1H-1,3-benzodiazole-6-carboxylic Acid], the Emax in assay [1] was 72%.
Consider `O=C(NS(=O)(=O)CCCO)c1ccc(N2[C@@H]3CC[C@H]2C[C@@H](OC(=O)c2c(-c4c(Cl)cccc4Cl)noc2C2CC2)C3)cc1` [Compound I-50, (1R,3R,5S)-8-{4-[(3-hydroxypropanesulfonyl)carbamoyl]phenyl}-8-azabicyclo[3.2.1]octan-3-yl 5-cyclopropyl-3-(2,6-dichlorophenyl)-1,2-oxazole-4-carboxylate], for which, in assay [1], the Emax was determined as 102% and the EC50 is 158 nM.
Take `O=C(O)c1cccc(S(=O)(=O)N2[C@@H]3CC[C@H]2C[C@@H](OC(=O)c2c(-c4c(Cl)cccc4Cl)noc2C2CC2)C3)c1` [Compound I-55, 3-{[(1R,3R,5S)-3-[5-cyclopropyl-3-(2,6-dichlorophenyl)-1,2-oxazole-4-carbonyloxy]-8-azabicyclo[3.2.1]octan-8-yl]sulfonyl}benzoic Acid]: in assay [1], the Emax amounted to 96% and the EC50 is 1000 nM.
